Laboratory results taken from patent US20190210996A1, “NOVEL COMPOUNDS” (GLAXOSMITHKLINE INTELLECTUAL PROPERTY DEVELOPMENT LIMITED, priority 2016, published 2019).

What was measured:
GAK = biological target: T1, GAK (Homo sapiens, UniProt O14976); experiment: Expression proteomics in THP-1 cells: GAK protein level; type: cell-based
T1 construct: endogenous in cells; host or cells: THP-1
T1 sequence (O14976 1-1311): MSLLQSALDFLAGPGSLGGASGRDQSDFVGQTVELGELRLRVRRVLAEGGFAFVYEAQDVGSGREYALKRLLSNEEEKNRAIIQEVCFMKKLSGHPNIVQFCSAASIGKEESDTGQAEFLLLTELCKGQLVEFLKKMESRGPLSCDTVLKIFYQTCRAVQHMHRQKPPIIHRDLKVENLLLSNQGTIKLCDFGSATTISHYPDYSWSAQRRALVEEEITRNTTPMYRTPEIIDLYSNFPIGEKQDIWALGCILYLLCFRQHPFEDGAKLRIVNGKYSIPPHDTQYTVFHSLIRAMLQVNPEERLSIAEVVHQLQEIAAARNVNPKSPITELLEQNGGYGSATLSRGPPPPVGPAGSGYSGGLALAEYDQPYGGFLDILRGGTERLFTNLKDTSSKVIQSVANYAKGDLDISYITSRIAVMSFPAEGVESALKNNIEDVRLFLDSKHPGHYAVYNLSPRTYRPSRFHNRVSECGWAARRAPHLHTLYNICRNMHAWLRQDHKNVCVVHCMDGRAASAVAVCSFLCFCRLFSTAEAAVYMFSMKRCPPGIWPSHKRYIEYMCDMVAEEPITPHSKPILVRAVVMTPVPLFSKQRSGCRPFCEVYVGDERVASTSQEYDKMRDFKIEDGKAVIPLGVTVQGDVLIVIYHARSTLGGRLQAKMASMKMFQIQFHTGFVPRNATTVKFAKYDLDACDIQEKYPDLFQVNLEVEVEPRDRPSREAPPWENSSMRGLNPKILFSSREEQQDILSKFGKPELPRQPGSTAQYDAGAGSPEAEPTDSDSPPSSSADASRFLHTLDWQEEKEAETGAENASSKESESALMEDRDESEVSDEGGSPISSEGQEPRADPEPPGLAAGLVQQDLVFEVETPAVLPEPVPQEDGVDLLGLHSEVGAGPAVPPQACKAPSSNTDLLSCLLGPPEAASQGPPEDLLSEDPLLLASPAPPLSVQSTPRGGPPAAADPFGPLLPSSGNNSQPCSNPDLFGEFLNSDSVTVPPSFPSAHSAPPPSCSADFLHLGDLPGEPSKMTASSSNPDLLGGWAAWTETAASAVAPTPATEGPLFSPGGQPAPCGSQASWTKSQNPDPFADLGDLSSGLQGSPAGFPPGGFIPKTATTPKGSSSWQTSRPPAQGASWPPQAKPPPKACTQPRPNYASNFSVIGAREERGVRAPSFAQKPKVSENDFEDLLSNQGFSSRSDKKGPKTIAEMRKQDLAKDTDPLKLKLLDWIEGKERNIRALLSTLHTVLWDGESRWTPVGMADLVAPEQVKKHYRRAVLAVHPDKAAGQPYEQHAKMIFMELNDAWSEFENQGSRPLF
Procedure: (§1) THP-1 cells were seeded at a concentration of 3×10^6 cells in T175 flasks with 60 mL growth medium (RPMI1640+10% FBS). […] of a 10× compound solution prepared in growth medium (DMSO), CEREBLON_PROTAC) was added and the cells were treated for the indicated time points (6 or 24 h) at 37° C., 5% CO2. For harvesting the cells were collected into falcon tubes on ice, centrifuged and washed twice in cold PBS (Life technologies). After the last washing step the supernatant was removed and the pellets were snap-frozen in liquid N2 and stored at −80° C. and lysed in 2% SDS for 3 min at 95° C. in a thermomixer (Thermo Fisher Scientific), followed by digestion of DNA with Benzonase at 37° C. for 1.5 h. Lysate was cleared by centrifugation an protein concentration in supernatant was determined by BCA assay.
(§2) Leukemia 25, 89-100 (2011).
(§3) Samples were dried in vacuo and resuspended in 0.05% trifluoroacetic acid in water. Of the sample, 50% was injected into an Ultimate3000 nanoRLSC (Dionex, Sunnyvale, Calif.) coupled to a Q Exactive HF (Thermo Fisher Scientific). Peptides were trapped on a 5 mm×300 μm C18 column (Pepmap100, 5 μm, 300 Å, Thermo Fisher Scientific) in water with 0.05% TFA at 60° C. Separation was performed on custom 50 cm×[…] (ID) reversed-phase columns (Reprosil) at 55° C. Gradient elution was performed from 2% acetonitrile to 40% acetonitrile in 0.1% formic acid and 3.5% DMSO over 2 hours. Samples were online injected into Q-Exactive HF mass spectrometers operating with a data-dependent top 10 method. MS spectra were acquired by using 60.000 resolution and an ion target of 3×10^6. Higher energy collisional dissociation (HCD) scans were performed with 35% NCE at 30.000 resolution (at m/z 200), and the ion target settings was set to 2×10^5 so as to avoid coalescence (Werner, T. et al. Ion Coalescence of Neutron Encoded TMT 10-Plex Reporter Ions. Anal. Chem. 86, 3594-3601 (2014).
(§4) The first search was performed with 30 parts per million mass tolerance for peptide precursors and 30 mD (HCD) mass tolerance for fragment ions followed by a final search using recalibrated data with a 10 parts per million mass tolerance for peptide precursors and 20 mD (HCD) mass tolerance for fragment ions. Carbamidomethylation of cysteine residues and TMT modification of lysine residues were set as fixed modifications and methionine oxidation, and N-terminal acetylation of proteins and TMT modification of peptide N-termini were set as variable modifications. […]
(§5) Nat Biotech 29, 255-265 (2011). this measure is referred to as ion area Savitski, M. M. et al. Delayed Fragmentation and Optimized Isolation Width Settings for Improvement of Protein Identification and Accuracy of Isobaric Mass Tag Quantification on Orbitrap-Type Mass Spectrometers. […]

AAK1 = biological target: T2, AAK1 (Homo sapiens, UniProt Q2M2I8); experiment: Expression proteomics in THP-1 cells: AAK1 protein level; type: cell-based; details: AAK1, THP-1 cells
T2 construct: endogenous in cells; host or cells: THP-1
Procedure: as §1, §2, §3, §4, §5

T2 sequence (Q2M2I8 whole entry): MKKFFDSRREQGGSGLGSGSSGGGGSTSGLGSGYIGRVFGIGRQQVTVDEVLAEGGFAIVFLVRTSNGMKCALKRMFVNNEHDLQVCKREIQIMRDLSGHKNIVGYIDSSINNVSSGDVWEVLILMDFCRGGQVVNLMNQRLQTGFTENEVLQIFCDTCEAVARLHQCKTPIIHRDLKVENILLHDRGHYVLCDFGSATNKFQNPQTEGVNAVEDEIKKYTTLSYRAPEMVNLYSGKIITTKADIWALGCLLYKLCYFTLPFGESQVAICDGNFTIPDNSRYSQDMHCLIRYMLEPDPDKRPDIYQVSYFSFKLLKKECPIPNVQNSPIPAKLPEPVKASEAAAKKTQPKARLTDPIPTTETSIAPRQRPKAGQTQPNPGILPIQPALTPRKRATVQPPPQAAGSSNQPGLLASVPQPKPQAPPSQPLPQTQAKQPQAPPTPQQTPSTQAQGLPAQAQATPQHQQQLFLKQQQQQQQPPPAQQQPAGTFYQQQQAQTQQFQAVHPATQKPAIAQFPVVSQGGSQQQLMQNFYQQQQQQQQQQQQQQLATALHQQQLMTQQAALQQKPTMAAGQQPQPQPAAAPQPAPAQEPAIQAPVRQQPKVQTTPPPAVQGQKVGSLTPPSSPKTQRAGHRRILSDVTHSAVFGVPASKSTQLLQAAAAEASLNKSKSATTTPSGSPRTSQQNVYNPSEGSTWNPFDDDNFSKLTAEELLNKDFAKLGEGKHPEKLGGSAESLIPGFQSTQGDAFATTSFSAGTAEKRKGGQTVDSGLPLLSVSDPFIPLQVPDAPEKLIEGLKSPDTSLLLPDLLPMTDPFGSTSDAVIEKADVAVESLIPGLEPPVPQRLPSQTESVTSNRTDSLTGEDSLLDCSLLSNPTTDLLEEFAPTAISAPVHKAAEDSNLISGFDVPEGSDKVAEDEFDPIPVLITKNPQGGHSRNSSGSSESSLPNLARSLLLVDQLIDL

CNC(=O)c1ccccc1Nc1nc(Nc2ccc(N3CCN(CCOCCOCCOCCOCC(=O)Nc4cccc5c4CN(C4CCC(=O)NC4=O)C5=O)CC3)cc2)ncc1Cl.O=CO (centres unmarked) [CEREBLON_PROTAC, 14-(4-(4-((5-Chloro-4-((2-(methylcarbamoyl)phenyl)amino)pyrimidin-2-yl)amino)phenyl)piperazin-1-yl)-N-(2-(2,6-dioxopiperidin-3-yl)-1-oxoisoindolin-4-yl)-3,6,9,12-tetraoxatetradecan-1-amide formate]
log2 rel. fc. to vehicle control (GAK; 24 h 0.1 μM, n = 1): −1.13
log2 rel. fc. to vehicle control (GAK; 24 h 0.1 μM, n = 2): −1.35
log2 rel. fc. to vehicle control (GAK; 24 h 1 μM, n = 1): −0.93
log2 rel. fc. to vehicle control (GAK; 24 h 1 μM, n = 2): −1.13
log2 rel. fc. to vehicle control (AAK1; 24 h 0.1 μM, n = 1): −2.34
log2 rel. fc. to vehicle control (AAK1; 24 h 0.1 μM, n = 2): −2.12
log2 rel. fc. to vehicle control (AAK1; 24 h 1 μM, n = 1): −2.42
log2 rel. fc. to vehicle control (AAK1; 24 h 1 μM, n = 2): −2.56
